Assay results from PMC8540617, “Dual Targeting of PTP1B and Aldose Reductase with Marine Drug Phosphoeleganin: A Promising Strategy for Treatment of Type 2 Diabetes” (Marine Drugs, 2021).

Columns and labels:
[1] = molecular target: T1, human recombinant PTP1B (1-302) (Homo sapiens, UniProt P18031); assay: PTP1B activity / inhibition assay (p-NPP hydrolysis); type: biochemical
T1 construct: The human recombinant PTP1B (1-302 aa) and LMW-PTP (full-length) were expressed as fusion proteins; polyhistidine (N); made in house; host or cells: E. coli BL21(DE3) pLysS
T1 sequence (P18031 1-302): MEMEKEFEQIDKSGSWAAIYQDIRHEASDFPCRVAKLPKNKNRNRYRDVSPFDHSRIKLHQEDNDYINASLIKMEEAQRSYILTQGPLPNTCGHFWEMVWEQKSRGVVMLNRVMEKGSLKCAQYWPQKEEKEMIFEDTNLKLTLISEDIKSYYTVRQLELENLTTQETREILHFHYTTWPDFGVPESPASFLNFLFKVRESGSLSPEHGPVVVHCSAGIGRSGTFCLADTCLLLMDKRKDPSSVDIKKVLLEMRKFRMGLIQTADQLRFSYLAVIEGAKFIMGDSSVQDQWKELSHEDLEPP
Procedure: PTP1B activity was determined as previously described. Briefly, each assay was started by adding an aliquot of human recombinant PTP1B (1-302) in the assay buffer (0.075 M β,β-dimethylglutarate pH 7.0, containing 1 mM EDTA, 0.1 mM DTT, and p-nitrophenylphosphate (p-NPP)). All reactions were performed at 37 °C in a final volume of 1 mL. After the incubation time, the reactions were stopped by adding 2 mL of 0.1 M KOH to the samples. The concentration of the released p-nitrophenol was determined by measuring the absorbance at 400 nm in a 1 cm pathlength cuvette. One unit of enzyme activity is the amount that catalyses the conversion of 1 μmol of substrate/min in the above assay conditions.
(§1) PE was dissolved in DMSO at a final concentration of 10 mM and added to the assay mixture containing 10 mU of purified AR (84 nM on the basis of a 34 KDa molecular weight) or 8 mU purified PTP1B (52 nM on the basis of a 36 KDa molecular weight). The reaction was started by the addition of the substrate. The DMSO concentration in the assays for AR determination was kept constant at 0.7 % (v/v) in order to avoid effects on AR activity. The inhibitory effect of PE was determined by measuring the reaction rates in the presence of a fixed substrate concentration (2.5 mM p-NPP and 0.8 mM L-idose for PTP1B and AR, respectively) and increasing inhibitor concentrations (at least 14-16 different concentrations). The IC50 (the inhibitor concentration able to decrease the enzymatic activity up to 50%) values were determined by nonlinear regression analysis using Prism GraphPad 6.0 (GraphPad Software, San Diego, CA, USA), fitting experimental data to the following equation: Vi/V0 = Max − Min/1 + x/IC50^slope + Min where Vi/V0 represents the relative activity calculated in presence of each inhibitor concentration; “Max” and “Min” represent the maximum and minimum value of the activity, respectively; “x” is the concentration of the inhibitor; and “slope” represents the slope of the curve in the transition zone.
(§2) In order to define the mechanism of action of PE, reaction rates were measured in assay mixtures containing different L-idose concentrations (between 0.8 and 6 mM) in the case of AR, and different p-NPP concentrations (between 0.5 and 25 mM) in the case of PTP1B, in the absence and in the presence of different PE concentrations. Data were analysed by Lineweaver–Burk plots. The apparent dissociation constants Ki’ (for the ESI complex) and Ki (for the EI complex) were determined from secondary plots of 1/^appVmax and ^appKM/^appVmax as a function of the inhibitor concentration, respectively.
Figure S3. Determination of IC50 value for PE. […] The amount of p-NP released was determined using a spectrophotometer, measuring the absorbance of samples at 400 nm, using a 1cm path length cuvette. […]

[2] = molecular target: T2, human recombinant AR (Homo sapiens, UniProt P15121); assay: AR activity / inhibition assay (NADPH oxidation, L-idose as substrate); type: biochemical
T2 construct: made in house; host or cells: E. coli BL21(DE3) pLysS
Procedure: AR activity was determined at 37 °C, as previously described, evaluating the decrease in absorbance at 340 nm linked to NADPH oxidation using a Biochrom Libra S60 spectrophotometer. The standard assay mixture contained 0.25 M sodium phosphate buffer pH 6.8, 0.18 mM NADPH, 2.4 M ammonium sulphate, 0.5 mM EDTA, and 4.7 mM D,L-glyceraldehyde. One unit of enzyme activity is the amount that catalyses the conversion of 1 μmol of substrate/min in the above assay conditions. For AR inhibition studies, L-idose (at the indicated concentrations) was used as substrate in the conditions described above.
as §1, §2

[3] = molecular target: T2, human recombinant AR; assay: Reversibility of AR inhibition by dialysis; type: biochemical
Procedure: (§3) The mixture was then extensively dialysed on Amicon ultrafiltration membrane (cut-off 3 KDa) against 10 mM sodium phosphate buffer, pH 7.0. After dialysis, the enzyme activity was again measured using 0.8 mM L-idose as substrate and compared to that of a mixture treated in the same conditions but in the absence of inhibitor. In order to evaluate the reversibility of the inhibitory action on PTP1B, 8 mU of PTP1B was incubated in the presence of a saturating concentration of PE (3 µM) and then incubated at 37 °C for 1 h. After this time, an aliquot of solution was withdrawn and extensively diluted in the assay buffer containing 2.5 mM of p-NPP. Residual activity of PTP1B was determined by calculating the amount of pNP released by measuring the absorbance of solution at 400 nm.

[4] = molecular target: T1, human recombinant PTP1B (1-302); assay: Reversibility of PTP1B inhibition, dilution assay; type: biochemical
Procedure: as §3
Figure S3. Determination of IC50 value for PE. An aliquot of PTP1B (8 mU) was incubated in the presence of increasing PE concentration in the assay buffer containing 2.5 mM pNPP. After 30 minutes, the reactions were stopped by adding 2 mL of 0.1 M KOH solution. The amount of p-NP released was determined using a spectrophotometer, measuring the absorbance of samples at 400 nm, using a 1cm path length cuvette. All tests were carried out in triplicate. Data obtained were normalized respect to control test and fitted using an opportune equation (see Material and method […]
Figure S4. Dilution assay. […]

[5] = tested on: HepG2 cells; assay: Analysis of the insulin signalling pathway (Western blot of IR and Akt phosphorylation); type: cell-based; conditions: HepG2, PE 25 µM combined with insulin 10 nM, 30 minutes
Procedure: To evaluate whether PE is able to improve the insulin signalling pathway in vitro, we analysed the effect of the compound on HepG2 cell line. For this purpose, we treated HepG2 cells with PE (25 µM final concentration) for 30 minutes in the presence or absence of insulin (10 nM). After treatment, cells were lysed and cellular extracts were analysed to evaluate the phosphorylation status of insulin receptor (IR) and Akt, a kinase downstream IR (Figure 7).
Figure 7 Effect of PE on the insulin signalling pathway. Panel A: Western blot image; Panel B: quantitation of Western blot carried out using Kodak MI software. Data shown were normalized with respect to the control sample. All tests were carried out in triplicate. […]
In order to evaluate the effect of PE on the insulin signalling pathway, HepG2 cells were seeded in 35-mm culture dishes and, after 24 hours, were incubated for 30 minutes with starvation medium (DMEM supplemented with 2 mM glutamine, 100 U/mL penicillin, and 100 μg/mL streptomycin) containing 25 μM of PE and/or 10 nM insulin (Humalog, lispro insulin). […] Cellular extracts were boiled for 5 minutes, and then an aliquot (20 µg of protein) was analysed by SDS-PAGE and Western blot to evaluate both total and phosphorylated expression levels of Akt and IR. β-actin was used as a reference protein to normalise protein loading.

IC50 ([1]; 2.5 mM p-NPP, pH 7.0, 37 °C, 8 mU PTP1B): 1.3 ± 0.04 µM
Type of inhibition of PTP1B ([1]; Lineweaver–Burk analysis): pure non-competitive inhibitor
K'i (ESI complex) for PTP1B ([1]; secondary plot of 1/appVmax vs PE concentration, p-NPP 0.5-25 mM): 0.7 ± 0.1 µM
Ki ([1]; secondary plot of appKM/appVmax vs PE concentration, p-NPP 0.5-25 mM, read-out: Ki (EI complex) for PTP1B): 0.7 ± 0.1 µM
IC50 ([2]; 0.8 mM L-idose, pH 6.8, 37 °C, 10 mU AR): 28.7 ± 1.1 µM
Type of inhibition of AR ([2]; Lineweaver–Burk analysis): mixed inhibitor
K'i (ESI complex) for AR ([2]; secondary plot of 1/appVmax vs PE concentration, L-idose 0.8-6 mM): 36 ± 1 µM
Ki ([2]; secondary plot of appKM/appVmax vs PE concentration, L-idose 0.8-6 mM, read-out: Ki (EI complex) for AR): 47 ± 1 µM
Reversibility of AR inhibition [3]: reversible inhibitor
AR enzyme activity recovered after removal of inhibitor by extensive dialysis ([3]; 10 mU AR incubated 90 min at 0 °C with PE 3 mM, then dialysed, 0.8 mM L-idose): 100%
Reversibility of PTP1B inhibition [4]: reversible inhibitor
PTP1B activity recovered after dilution ([4]; incubation with saturating PE (3 µM) at 37 °C, then dilution in buffer with 2.5 mM p-NPP): almost completely
SMILES: CCCCCCCCCCCCCCC(OP(=O)(O)O)C(O)CCC(O)C(O)CCC(O)CCCCCCC(=O)NCC(=O)O (centres unmarked) [PE, phosphoeleganin]
Akt phosphorylation level [5]: significant increase
IR phosphorylation level [5]: significant increase
